Measurements as given in patent publication US20220265845A1, “AMINOTHIOLESTER COMPOUNDS AND USES THEREOF” (ADVANCED BIODESIGN, priority 2019, published 2022).
pIC50, pKi: −log10 of the molar value.

Assays:
[1] = molecular target: T1, Human recombinant ALDH1A2 (Homo sapiens, UniProt O94788); assay: Kinetic parameters and inhibition type from Kobs versus inhibitor concentration plots; assay type: biochemical; conditions: from Kobs versus [I] plots
T1 construct: purchased Creative BioMart, NY, USA
T1 sequence (O94788 1-518): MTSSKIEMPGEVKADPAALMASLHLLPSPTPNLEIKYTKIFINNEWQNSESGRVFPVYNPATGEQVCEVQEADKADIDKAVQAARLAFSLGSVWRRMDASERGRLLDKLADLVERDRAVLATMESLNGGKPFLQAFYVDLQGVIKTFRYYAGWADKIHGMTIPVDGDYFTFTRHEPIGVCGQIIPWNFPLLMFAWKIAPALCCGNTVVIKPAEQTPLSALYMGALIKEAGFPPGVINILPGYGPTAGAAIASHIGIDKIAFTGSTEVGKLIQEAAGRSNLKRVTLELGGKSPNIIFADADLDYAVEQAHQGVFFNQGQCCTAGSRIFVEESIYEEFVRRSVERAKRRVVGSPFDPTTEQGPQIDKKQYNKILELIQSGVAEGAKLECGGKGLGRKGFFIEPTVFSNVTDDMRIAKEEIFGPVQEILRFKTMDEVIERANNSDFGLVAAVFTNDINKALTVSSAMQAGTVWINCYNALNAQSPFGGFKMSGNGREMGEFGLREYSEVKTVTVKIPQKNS
Description: (§1) The kinetic data are expressed as the mean±standard error from three independent determination. Kinact/Ki was determined from Kobs versus concentration of the inhibitor [I] plots. […] The Kobs were obtained from negative exponential fit using non-linear regression program GraFit 5.0 (Erithacus software).
(§2) To determine the inhibition mechanisms of the tested compounds for each isoenzyme, the corresponding Kobs were calculated as mentioned above, plotting product concentration vs time incubation of the enzymes with the test compounds at 300 μM, 200 μM, 100 μM, 50 μM, 20 μM and 10 μM. The kobs were obtained for each concentration of inhibitor tested, from the negative exponential fit using non-linear regression program GraFit 5.0 (Erithacus software). Finally, the kinetic parameter of kinact/KI was determined from the plot of kobs versus the corresponding concentration of inhibitor. The slope of the linear fit of data indicated the rate constant in μM^−1·min^−1.

[2] = molecular target: T2, Human recombinant ALDH3A1 (Homo sapiens, UniProt P30838); assay: as above; assay type: biochemical; conditions: for pKi: printed in the Kinact/Ki column in place of Kinact/Ki
T2 sequence (P30838 1-453): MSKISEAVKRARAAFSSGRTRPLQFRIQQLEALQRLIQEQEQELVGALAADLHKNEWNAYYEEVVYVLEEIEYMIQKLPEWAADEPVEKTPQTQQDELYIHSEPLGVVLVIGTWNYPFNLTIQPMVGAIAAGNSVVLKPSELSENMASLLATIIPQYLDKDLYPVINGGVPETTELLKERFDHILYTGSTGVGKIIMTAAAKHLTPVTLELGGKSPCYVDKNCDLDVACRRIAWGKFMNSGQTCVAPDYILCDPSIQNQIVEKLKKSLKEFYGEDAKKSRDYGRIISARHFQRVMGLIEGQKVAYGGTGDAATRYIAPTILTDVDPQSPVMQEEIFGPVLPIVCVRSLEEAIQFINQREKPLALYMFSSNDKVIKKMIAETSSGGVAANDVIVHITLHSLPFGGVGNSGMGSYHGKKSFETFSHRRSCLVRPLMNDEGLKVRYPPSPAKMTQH
Description: as §1, §2

[3] = system: HL-60; assay: Cell viability assay (Resazurin), cytotoxicity in HL60 cells; assay type: cell-based; conditions: Homo sapiens, HL-60, read-out: IC50 at 48 h, 48 hours of incubation
Description: Cell lines. Leukemic cell line, HL-60 (derived from a person with AML-M2), was used for determination of drug efficacy. Cells were obtained from the European Collection of Cell Cultures (ECACC). All cells were cultivated in appropriate media according to supplier recommendations.
Cell Viability assay, 96-well format. Cells were seeded into 96-well cell culture plates at concentrations required to ensure approximately 80% confluence in control (untreated cells) at the end of experiment (0.5×10^4-5×10^4 cell/well).
The sensitivity towards compounds according to the invention was determined using different concentrations of each compound ranging from 0.5 to 100 μM (0.5, 1, 2, 5, 10, 15, 20, 25, 30, 40, 50, 100 μM). Following 48 hours of incubation at 37° C. in a humidified atmosphere containing 5% CO2, the growth-inhibitory effect of compounds was analyzed using Resazurin, according to manufactures instructions.
To ensure good data quality and to minimize impact of pipetting errors, each compounds concentration was assessed based on mean fluorescence intensity from 8 separate wells. Compounds response were quantified by the half maximal inhibitory concentration (IC50) for each particular cell line, and determined by non-linear regression analysis of log-dose/response curves.
Statistical Analysis. Values were expressed as mean±SD or frequencies and proportions. Cell viability curves were determined using four parameter regression line. Differences between groups were determined by unpaired t test, Chi-square, Fisher's exact test or ANOVA, where appropriate. P<0.05 was considered statistically significant. Analysis was performed using GraphPad prism version 5.0 (GraphPad software, San Diego Calif. USA).

[4] = system: ALDH class 1 recombinant enzymes; assay: Comparison with DIMATE on ALDH class 1 recombinant enzymes; assay type: biochemical, human; conditions: from IC50 of Table 4
Description: Human recombinant ALDH1A1, ALDH1 A2, ALDH1A3, ALDH2 (Creative BioMart, NY, USA) were prepared at 1 mg/mL. The enzymatic reactions were performed using saturating concentrations of substrate. To test the enzymatic activity of the enzymes, 10 μL of enzyme was added into a reaction buffer containing 50 mM HEPES pH 7.2, 30 mM MgCl2, plus 20 mM NAD^+ cofactor and 2 mM Hexanal (Sigma-Aldrich, St. Louis, Mo., USA) in the presence or absence of the different tested compounds. Internal standards were prepared with Nicotinamide adenine dinucleotide reduce form (NADH, 500 μM, Sigma-Aldrich) in Reaction Buffer (50 mM HEPES pH 7.2, 30 mM MgCl2).
Time-dependent inhibition assays were performed for 0-2-5-10-15-20-30-45-60 min at 37° C. in 1 mL-quartz cuvette. The formation of NADH was monitored, reading samples at excitation wavelength=340 nm/emission wavelength=460 nm (fluorescence) for at least 600 sec using Cary Eclipse Varian fluorimeter.
as §1

| kinact/KI [1] [M⁻¹ s⁻¹] | pKi [2] | Inhibition of the ALDH class 1 enzymes compared with DIMATE [4] | kinact/KI ([2]; from Kobs versus [I] plots) [M⁻¹ s⁻¹] | SMILES | pIC50 [3] |
| --- | --- | --- | --- | --- | --- |
| 85 | 3.60 |  |  | CSC(=O)C#CC(C)(C)N(C)C [DIMATE, S-methyl 4-(dimethylamino)-4-methylpent-2-ynethioate, reference compound] |  |
| 1670 | 3.63 | higher inhibition |  | CSC(=O)C#CC(C)(C)N(C)CCOCc1ccccc1 [Example 3, S-methyl 4-[2-benzyloxyethyl(methyl)amino]-4-methyl-pent-2-ynethioate] | 5.93 |
| 352 |  | higher inhibition | 5 | CSC(=O)C#CC(C)(C)N(C)CCOCc1ccc(C)c(C)c1 [Example 5, S-methyl 4-[2-[(3,4-dimethylphenyl)methoxy]ethyl-methyl-amino]-4-methyl-pent-2-ynethioate] | 5.33 |
